For eight compounds, EC50 and IC50 results are on record in patent publication US20130102629A1, “ANALOGUES FOR THE TREATMENT OR PREVENTION OF FLAVIVIRUS INFECTIONS” (VERTEX PHARMACEUTICALS INCORPORATED, priority 2010, published 2013).

Test [1] relates to HCV (1b) replicon, Huh-ET cells. Kind of test: Cell-based luciferase reporter HCV (1b) RNA replication assay. As to conditions: Hepatitis C virus; for EC50: HCV genotype 1b replicon, read-out: EC50_1b; for IC50: sub-genomic replicon 1b cell line. The source says: Cell-Based Luciferase Reporter HCV (Ib) RNA Replication Assay Cell Culture
Replicon cell lines Huh-5.2 are derived from the Huh-7 hepatocarcinoma cell line are maintained in culture as generally described in Krieger, N; Lohmann, V; Bartenschlager, R. Enhancement of hepatitis C virus RNA replication by cell culture-adaptive mutations. J. Virol. 2001, 75, 4614-4624. The Huh-5.2 cells contain the highly cell culture-adapted replicon I389luc-ubi-neo/NS3-3′/5.1 construct that carries, in addition to the neomycin gene, an integrated copy to the firefly luciferase gene (Krieger, N; Lohmann, V; Bartenschlager, R. Enhancement of hepatitis C virus RNA replication by cell culture-adaptive mutations. J. Virol. 2001, 75, 4614-4624). This cell line allows measurement of HCV RNA replication and translation by measuring luciferase activity. It has been previously shown that the luciferase activity tightly follows the replicon RNA level in these cells (Krieger, N; Lohmann, V; Bartenschlager, R. Enhancement of hepatitis C virus RNA replication by cell culture-adaptive mutations. J. Virol. 2001, 75, 4614-4624). The Huh-ET cell line has the same features as those mentioned for Huh-5.2 cell line, except that ET cells are more robust and contain an adaptative mutation in the HCV NS4B gene instead of NS5A. Both cell lines are maintained in cultures at a sub-confluent level (<85%) as the level of replicon RNA is highest in actively proliferating cells. The culture media used for cell passaging consist of DMEM (Gibco BRL Laboratories, Mississauga, ON, Canada) supplemented with 10% foetal bovine serum with 1% penicilin/streptomycin, 1% glutamine, 1% sodium pyruvate, 1% non-essential amino acids, and 180 μg/ml of G418 final concentration. Cells are incubated at 37° C., in an atmosphere of 5% CO2 and passaged twice a week to maintain sub-confluence.
Approximately 3000 viable Huh-ET cells (100 μl) are plated per well in a white opaque 96-well microtiter plate. The cell culture media used for the assay is the same as described above except that it contains no G418 and no phenol red. After an incubation period of 3-4 hours at 37° C. in a 5% CO2 incubator, compounds (100 μl) are added at various concentrations. Cells are then further incubated for 4 days at 37° C. in a 5% CO2 incubator. Thereafter, the culture media is removed and cells are lysed by the addition of 95 μL of the luciferase buffer (luciferin substrate in buffered detergent). Cell lysates are incubated at room temperature and protected from direct light for at least 10 minutes. Plates are read for luciferase counts using a luminometer (Wallac MicroBeta Trilux, Perkin Elmer™, MA, USA).
Curves are fitted to data points using nonlinear regression analysis, and IC50s are interpolated from the resulting curve using GraphPad Prism software, version 2.0 (GraphPad Software Inc., San Diego, Calif., USA).
A general note: Reporter assays use an easily measured gene product as a stand-in for the process of interest.

Test [2] deals with sub-genomic HCV replicon of genotype 1a (cell line W11.8). Kind of test: Activity determination using the ELISA and the sub-genomic replicon 1a cell line. In kind it is cell-based. As to conditions: Hepatitis C virus. The source says: Activity Determination Using the ELISA and the Sub-Genomic Replicon 1a Cell Line
The cell line W11.8 containing the sub-genomic HCV replicon of genotype 1a is used to determine the potency of the drugs. The RNA replication in presence of different drug concentrations is indirectly measured in this cell line by the level of NS5A protein content upon drug treatment for four days. It is shown that the level of the NS5A protein correlates well with the level of HCV RNA in the replicon cell line. Cells are split twice a week in order to keep the confluence state below 85% of the culture flask surface area. The culture media used for cell passaging consists of DMEM-10% foetal bovine serum with 100 UI/mL penicillin, 100 μg/mL streptomycin, 2 mM glutamine, 1 mM sodium pyruvate, non-essential amino acids (1×) and 600 μg/mL of G418 final concentrations. Monolayer of the W11.8 cells is trypsinized and cells are counted. […] Then, substrate solution (100 μl, SuperSignal ELISA Pico Chemiluminescent Substrate, Fisher Cat. No. 37069) is added in each well and plates are incubated 60 minutes at room temperature prior to reading the luminescence (relative light units) on the Analyst HT plate reader. The percentage of inhibition at each drug concentration tested (in duplicate) is calculated.
Background: ELISA stands for enzyme-linked immunosorbent assay.

SMILES strings stand for the structures. Some results are limits rather than exact numbers.

With `COC(=O)N[C@H](C(=O)N1C[C@@H](C)C[C@H]1c1ncc(-c2ccc(-c3ccc(-c4ccc5nc([C@@H]6C[C@H](C)CN6C(=O)[C@@H](NC(=O)OC)C(C)C)oc5c4)cc3)cc2)[nH]1)C(C)C` [Compound 1], the EC50 in test [1] was at most 5 nM.

Take `COC(=O)N[C@H](C(=O)N1C[C@@H](C)C[C@H]1c1cc2ccc(-c3ccc(-c4ccc(-c5cnc([C@@H]6C[C@H](C)CN6C(=O)[C@@H](NC(=O)OC)C(C)C)[nH]5)cc4)cc3)cc2[nH]1)C(C)C` [Compound 2]: the EC50 in test [1] is at most 5 nM.

In the case of `COC(=O)N[C@H](C(=O)N1C[C@@H](C)C[C@H]1c1ncc(-c2ccc(-c3ccc(-c4ccc5sc([C@@H]6C[C@H](C)CN6C(=O)[C@@H](NC(=O)OC)C(C)C)nc5c4)cc3)cc2)[nH]1)C(C)C` [Compound 3], the EC50 in test [1] was at most 5 nM.

Broadly, the IC50 is the concentration that inhibits the measured activity by half. Take `COC(=O)N[C@H](C(=O)N1[C@@H](C)CC[C@H]1c1nc(-c2ccc(-c3ccc(-c4cnc5[nH]c([C@@H]6CC[C@H](C)N6C(=O)[C@@H](NC(=O)OC)C(C)C)nc5c4)cc3)cc2)c[nH]1)C(C)C` [Compound 4]: in test [1], the EC50 is at most 5 nM and half-maximal inhibition (IC50) was put at 0.07 nM. In test [2], this compound returned an IC50 of 0.025 nM.

In the case of `COC(=O)N[C@H](C(=O)N1C[C@@H](C)C[C@H]1c1cc2cc(-c3ccc(-c4ccc(-c5cnc([C@@H]6C[C@H](C)CN6C(=O)[C@@H](NC(=O)OC)C(C)C)[nH]5)cc4)cc3)ccc2[nH]1)C(C)C` [Compound 5], the EC50 in test [1] was at most 5 nM.

For the compound `COC(=O)N[C@H](C(=O)N1C(c2nc3cc(-c4ccc(-c5ccc(-c6c[nH]c([C@@H]7CC[C@H](C)N7C(=O)[C@@H](NC(=O)OC)C(C)C)n6)cc5)cc4)cnc3[nH]2)CC[C@@H]1C)C(C)C` (stereo partly drawn) [Compound 6], the EC50 in test [1] is at most 5 nM.

On to `COC(=O)N[C@H](C(=O)N1C[C@@H](C)C[C@H]1c1nc2ccc(-c3cc4sc(-c5c[nH]c([C@@H]6C[C@H](C)CN6C(=O)[C@@H](NC(=O)OC)C(C)C)n5)cc4s3)cn2n1)C(C)C` [Compound 15], for which, in test [1], the EC50 was at most 5 nM.

On to `COC(=O)N[C@H](C(=O)N1C[C@@H](C)C[C@H]1c1nc(-c2ccc(-c3ccc(-c4cnc5[nH]c([C@@H]6C[C@H](C)CN6C(=O)[C@@H](NC(=O)OC)C(C)C)nc5c4)cc3)cc2)c[nH]1)C(C)C` [Compound 16, Methyl N-[(1S)-1-[(2S,4S)-2-[4-[4-[4-[2-[(2S,4S)-1-[(2S)-2-(methoxycarbonylamino)-3-methyl-butanoyl]-4-methyl-pyrrolidin-2-yl]-3H-imidazo[4,5-b]pyridin-6-yl]phenyl]phenyl]-1H-imidazol-2-yl]-4-methyl-pyrrolidine-1-carbonyl]-2-methyl-propyl]carbamate], for which, in test [1], the EC50 was at most 5 nM and the half-maximal inhibitory concentration (IC50) is 0.01 nM. Further, the midpoint of inhibition in test [2], the IC50, lay at 0.01 nM.
